Test results taken from patent publication US20230257715A1, “COMPOSITIONS AND METHODS FOR REGULATING ENTEROENDOCRINE CELL DIFFERENTIATION AND USES THEREOF” (The Children's Medical Center Corporation, priority 2020, published 2023).
“And” between values parts separate entries of the source, which are not always exact repeats. Equal entries are not always repeated.

Legend:
Assay type in all cases: cell-based
[1] = system: human duodenal enteroids; assay: qPCR analysis of enteroendocrine and lineage markers in enteroids; conditions: time-course of AS-treated enteroids, RNA every two days
[2] = system: human duodenal enteroids; assay: Immunofluorescence staining of lineage markers CK20, MUC2, LYZ in enteroids
Procedure: (§1) Immunofluorescence staining was performed as previously described with minor modifications (Dekkers J F, Alieva M, Wellens L M, et al. Nat Protoc 2019; 14:1l756-1771)^32. Organoids were grown in and isolated from Matrigel® as noted above. 1-3 wells from a 24-well plate were washed in 200 μL of 1× phosphate-buffered saline (PBS) and moved in suspension to a 1.5 mL microcentrifuge tube. Each tube was centrifuged at 800×g for 5 minutes at 4° C. to pellet organoids. PBS was aspirated, and organoids were fixed in 200 μL of 4% paraformaldehyde (PFA) for 20 minutes on ice, shaking. Each tube was centrifuged again as above, and PFA was aspirated. The organoids were then resuspended in 500 μL of 0.3% Triton-X in PBS and moved to a 48-well plate for the remaining steps. The organoids were permeabilized for 30 minutes at room temperature, shaking. Between each step, organoids were allowed to settle to the bottom of each well, the plate was angled, and the solution aspirated by careful pipetting. Organoids were then blocked with 5% bovine serum albumin in PBS for 1.5 hours at room temperature, shaking. This was followed by three five-minute washes in 500 μL of PBS at room temperature, shaking.
(§2) Each well was then incubated in 200 μL of primary antibodies diluted in 5% BSA/0.1% Trition-X in PBS at 4° C. overnight. This was followed by five washes in 500 μL of 0.1% Triton-X in PBS for 15 minutes each at room temperature, shaking. 200 μL of secondary antibodies, including Alexa Fluor 488- or 647-conjugated anti-mouse (Invitrogen, A-21202, or A-31571, 1:400), Alexa Fluor 488-conjugated anti-rat (Invitrogen, A-21208, 1:400), Alexa Fluor 488-conjugated anti-goat (Invitrogen, A-11055, 1:400) or Alexa Fluor 647-conjugated anti-rabbit (Invitrogen, A-31573, 1:400), diluted in 0.1% Triton-X in PBS, which were then added to each well and incubated for two hours at room temperature, shaking. Organoids were then washed as above, then moved to new 1.5 mL centrifuge tubes. […]

[3] = system: human duodenal enteroids; assay: Immunofluorescence staining of hormones (SST, 5HT, GIP, CCK) in enteroids; conditions: 14-day protocol
Procedure: as §1
as §2, with “tubes. During the last wash, 4′,6-diamidino-2-phenylindole (DAPI, Life Technologies, D1306) was added at a concentration of 1:1000 for nuclear staining. Organoids were then centrifuged at 1000×g for 5 minutes at 4° C. to assist in removal of as much PBS as possible. Slides were prepared by drawing three circles with a hydrophobic pen (Vector Laboratories, H-4000). Enteroids were then resuspended in 20 μL of Prolong Gold Antifade mountant (Life Technologies, P36930), and droplets placed within hydrophobic circles.” for “tubes.”
(§3) This technique was adapted from a previously described method (Borten M A, Bajikar S S, Sasaki N, et al. Sci Rep 2018; 8:5319)^69. […] Any remaining clumped enteroids were manually separated prior to quantification. […]

[4] = system: human duodenal enteroids; assay: Immunofluorescence staining of CHGA, percentage of CHGA-positive enteroids
Procedure: Immunofluorescence staining was performed as previously described with minor modifications (Dekkers J F, Alieva M, Wellens L M, et al. Nat Protoc 2019; 14:1l756-1771)^32. Organoids were grown in and isolated from Matrigel® as noted above. 1-3 wells from a 24-well plate were washed in 200 μL of 1× phosphate-buffered saline (PBS) and moved in suspension to a 1.5 mL microcentrifuge tube. Each tube was centrifuged at 800×g for 5 minutes at 4° C. to pellet organoids. PBS was aspirated, and organoids were fixed in 200 μL of 4% paraformaldehyde (PFA) for 20 minutes on ice, shaking. Each tube was centrifuged again as above, and PFA was aspirated. The organoids were then resuspended in 500 μL of 0.3% Triton-X in PBS and moved to a 48-well plate for the remaining steps. The organoids were permeabilized for 30 minutes at room temperature, shaking. Between each step, organoids were allowed to settle to the bottom of each well, the plate was angled, and the solution aspirated by careful pipetting. Organoids were then blocked with 5% bovine serum albumin in PBS for 1.5 hours at room temperature, shaking. This was followed by three five-minute washes in 500 μL of PBS at room temperature, shaking. […]
as §3

[5] = system: human duodenal enteroids; assay: Flow cytometry of CHGA+ cells from enteroids
Procedure: Organoids were incubated in Cell Recovery solution for 40-60 minutes at 4° C. to remove the Matrigel® and then centrifuged at 500×g for 5 minutes at 4° C. To achieve single cell suspension, organoids were then incubated in 500 μL of TrypLE™ Express (Thermo Fisher Scientific) at 37° C. for 30 minutes and broken up by repeated pipetting using a bent P1000 pipette tip. Each sample was then diluted in 800 μL of 20% FBS in Advanced DMEM/F12 and then centrifuged at 800×g for 5 minutes at 4° C. To mark dead cells, each sample was then incubated in DAPI (1:1000) diluted in 2% FBS/2 mM EDTA/calcium-free DMEM for 20 minutes at room temperature, then centrifuged at 800×g for 5 minutes at 4° C. and washed in 2% FBS/2 mM EDTA/DMEM. Cells were then incubated in 1% PFA for 15 minutes at room temperature, washed with 2% FBS/PBS and then permeabilized in 0.2% Tween 20 in 2% FBS/PBS for 15 minutes at 37° C. Following centrifugation, cells were resuspended in 0.1% Tween 20/2% FBS/2 mM EDTA in PBS with PE/Alexa Fluor 647-conjugated CHGA (BD Biosciences, 564563, 1:100) or PE/Alexa Fluor 647-conjugated mouse IgG1, K isotype, (BD Biosciences, 554680, 1:200) or with no antibody (the latter two acting as controls) for 30 minutes on ice. Cells were then washed in 0.1% Tween 20/2% FBS/2 mM EDTA in PBS, filtered through a 37-micron mesh, and then analyzed on a BD FACSAria II SORP flow cytometer. […]

CCn1cc(C(=O)O)c(=O)c2c(N)c(F)c(NC3CCCCC3)cc21 [AS, AS1842856]
CHGA and SST transcript levels over time [1]: detectable transcript levels by the sixth day of differentiation | NEUROD1 and NEUROG3 expression over time [1]: showed increased expression around the fourth day of differentiation | lysozyme (LYZ) immunofluorescence staining [2]: expressed | mucin 2 (MUC2) immunofluorescence staining [2]: lesser degree | cytokeratin 20 (CK20) immunofluorescence staining ([2]; enterocyte marker): lesser degrees | percentage of CCK-positive enteroids [3]: 4.5% | percentage of GIP-positive enteroids [3]: 53% | percentage of enteroids containing SST-positive cells [3]: 42% | percentage of enteroids with positive 5HT staining [3]: 75% | CHGA expression by immunofluorescence staining (whole well, qualitative) ([4]; FIG. 5B legend): more | percentage of enteroids containing CHGA+ cells (immunofluorescence) ([4]; enteroids, 14-day protocol): 85% and 82% | number of CHGA+ cells relative to the number seen with G2D12 alone [5]: ~50 times
